Here are results for 14 molecules from PMC6150311, “Proline-Based Carbamates as Cholinesterase Inhibitors” (Molecules : A Journal of Synthetic Chemistry and Natural …, 2017).

Assay [1] relates to human monocytic leukemia THP-1 cells. The experiment in a line: In vitro cytotoxicity assay (WST-1). The class given is cell-based. The following applies: 24 h, highest tested concentration 30 μM, read-out: tox. IC50. How it is done: The cytotoxicity was evaluated as the IC50 value (compound concentration causing 50% inhibition of cell population proliferation) (see Table 1). […] Based on these observations, it can be concluded that the discussed compounds can be considered as non-toxic agents for subsequent design of novel drugs.
Human monocytic leukemia THP-1 cells were used for in vitro toxicity assay. Cells were obtained from the European Collection of Cell Cultures (ECACC, Salisbury, UK) and routinely cultured in RPMI 1640 (Lonza, Verviers, Belgium) medium supplemented with 10% fetal bovine serum (FBS, Sigma), 2% L-glutamine, 1% penicillin and streptomycin (Lonza, Verviers, Belgium) at 37 °C with 5% CO2. Cells were passaged at approximately one week intervals. The cytotoxicity of the compounds was determined using a WST-1 assay kit (Roche Diagnostics, Mannheim, Germany) according to the manufacturer’s instructions. The tested compounds were dissolved in DMSO and added in five increasing concentrations (0.37, 1.1, 3.3, 10, and 30 μM) to the cell suspension in the culture RPMI 1640 medium. The maximum concentration of DMSO (Sigma) in the assays never exceeded 0.1%. Subsequently, the cells were incubated for 24 h at 37 °C with 5% CO2. For WST-1 assays, cells were seeded into 96-well plates (5 × 10^4 cells/well in 100 μL culture medium) in triplicate in serum-free RPMI 1640 medium, and measurements were taken 24 h after the treatment with the compounds. The median inhibition concentration values, IC50, were deduced through the production of a dose-response curve. All data were evaluated using the GraphPad Prism 5.00 software (GraphPad Software, San Diego, CA, USA).

In the next assay the target is T1, BChE from equine serum (Equus caballus, UniProt P81908).
T1 construct: BChE (from equine serum); purchased Sigma, St. Louis, MO, USA; host or cells: equine serum
T1 sequence (P81908 whole entry): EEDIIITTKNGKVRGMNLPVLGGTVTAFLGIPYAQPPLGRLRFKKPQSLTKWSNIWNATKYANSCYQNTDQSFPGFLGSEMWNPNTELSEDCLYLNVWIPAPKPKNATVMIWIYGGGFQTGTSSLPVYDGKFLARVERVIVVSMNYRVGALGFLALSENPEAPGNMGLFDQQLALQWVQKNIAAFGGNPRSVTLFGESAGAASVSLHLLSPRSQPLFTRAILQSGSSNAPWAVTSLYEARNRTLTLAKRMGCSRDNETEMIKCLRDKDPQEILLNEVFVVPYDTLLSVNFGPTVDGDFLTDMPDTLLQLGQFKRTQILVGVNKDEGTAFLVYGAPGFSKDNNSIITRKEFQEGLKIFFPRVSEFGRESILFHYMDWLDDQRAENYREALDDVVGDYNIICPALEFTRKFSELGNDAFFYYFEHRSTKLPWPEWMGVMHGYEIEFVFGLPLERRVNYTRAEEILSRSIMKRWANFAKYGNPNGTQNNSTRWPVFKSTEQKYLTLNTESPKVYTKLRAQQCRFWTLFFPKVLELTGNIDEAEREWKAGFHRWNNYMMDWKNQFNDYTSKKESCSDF
In words: In vitro BChE inhibition, modified Ellman's method. Type of assay: biochemical. The following applies: for SI (index selectivity) = IC50 (AChE)/IC50 (BChE): ratio AChE/BChE, higher = more selective to BChE; for selectivity to BChE (in words): BChE vs AChE. As for the experimental part:
(§1) The ability of all prepared compounds to inhibit AChE from electric eel (Electrophorus electricus) and BChE from equine serum (both purchased from Sigma, St. Louis, MO, USA) was determined in vitro using a modified Ellman’s method. […] The Ellman’s method is widely used for measuring cholinesterase activity and the effectivity of ChEIs. It is a simple, rapid and direct method to determine SH and –S–S– groups content in proteins. Cholinesterase activity is measured indirectly by quantifying the concentration of 5-thio-2-nitrobenzoic acid (TNB) ion formed in the reaction between disulfide reagent 5,5′-dithiobis-2-nitrobenzoic acid (DTNB) and thiocholine, a product of substrate (i.e., acetylthiocholine, ATCh) hydrolysis catalyzed by cholinesterase.
(§2) All tested compounds were dissolved in DMSO (concentration 0.01 M) and diluted in demineralized water (concentrations 0.001 M and 0.0001 M). The ability of tested compounds to inhibit AChE (from electric eel) and BChE (from equine serum) was determined using the modified Ellman’s method at 25 °C in the presence of phosphate buffered saline (PBS, 0.1 M, pH 7.4) in a glass cuvette with 1 cm optical path. The enzyme activity in total reaction mixture (2 mL) was 0.2 U/mL, the concentration of substrate ATCh 40 μM and the concentration of DTNB 0.1 mM for all reactions. The IC50 value was obtained from the dependence of v0/vi on the concentration of the tested compound (inhibitor), where v0 is the reaction rate of uninhibited reaction and vi is the reaction rate of inhibited reaction (for the given concentration of the inhibitor). First, v0 was determined. Into the cuvette PBS (0.1 M, pH 7.4), DTNB and ATCh were placed. The enzymatic reaction was started by adding the enzyme. […] The measurement was performed in triplicate at least, and average v0 was determined. Then, vi (for the given concentration of the inhibitor) was determined. Into the cuvette DTNB, ATCh, a chosen volume of the suitably diluted inhibitor (to achieve the required concentration of the inhibitor in the total reaction mixture) and a certain volume of PBS (to achieve the total volume of the reaction mixture 2 mL after adding the enzyme) were placed. The enzymatic reaction was started by adding the enzyme. […] For determination of IC50 values, twelve different concentrations of inhibitor were used and each measurement was performed in triplicate at least.
Background: In Ellman's method for cholinesterases, released thiocholine reacts with DTNB.

Assay [2] has as its target T2, AChE from electric eel (Electrophorus electricus) (Electrophorus electricus, UniProt O42275).
T2 construct: AChE (from electric eel) and BChE (from equine serum); purchased Sigma, St. Louis, MO, USA; host or cells: electric eel (animal source)
The experiment in a line: In vitro AChE inhibition, modified Ellman's method. The class given is biochemical. As for the experimental part: as §1, §2

T2 sequence (O42275 24-633): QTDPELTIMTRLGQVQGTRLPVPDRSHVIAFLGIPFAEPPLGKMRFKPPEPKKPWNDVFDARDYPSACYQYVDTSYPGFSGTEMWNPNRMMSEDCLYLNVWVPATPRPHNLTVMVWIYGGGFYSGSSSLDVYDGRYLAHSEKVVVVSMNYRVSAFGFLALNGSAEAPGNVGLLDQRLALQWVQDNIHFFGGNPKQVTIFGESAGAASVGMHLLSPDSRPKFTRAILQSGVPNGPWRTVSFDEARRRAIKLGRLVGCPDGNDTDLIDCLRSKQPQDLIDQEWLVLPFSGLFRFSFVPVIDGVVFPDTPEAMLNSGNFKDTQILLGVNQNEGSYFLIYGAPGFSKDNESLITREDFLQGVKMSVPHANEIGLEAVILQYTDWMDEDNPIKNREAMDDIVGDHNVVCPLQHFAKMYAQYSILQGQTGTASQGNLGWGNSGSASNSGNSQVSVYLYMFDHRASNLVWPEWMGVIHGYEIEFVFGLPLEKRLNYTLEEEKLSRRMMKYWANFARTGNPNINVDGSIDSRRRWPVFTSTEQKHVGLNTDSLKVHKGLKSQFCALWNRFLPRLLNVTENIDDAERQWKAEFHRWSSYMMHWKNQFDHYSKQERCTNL

Regarding `O=C(Nc1cccc(Cl)c1)[C@@H]1CCCN1C(=O)OCc1ccccc1` [Compound 5b, Benzyl (2S)-2-[(3-chlorophenyl)carbamoyl]pyrrolidine-1-carboxylate], the 50% inhibitory concentration (IC50) in assay [1] is above 30 µM; against BChE from equine serum, 64.2 ± 7.14 µM; in assay [2], 48.27 ± 0.11 µM. In addition, the “SI (index selectivity) = IC50 (AChE)/IC50 (BChE)” value (from here on “SI (index selectivity) = IC50”) on BChE from equine serum came to 0.75.

As for `O=C(Nc1ccc(Cl)cc1)[C@@H]1CCCN1C(=O)OCc1ccccc1` [Compound 5c, Benzyl (2S)-2-[(4-chlorophenyl)carbamoyl]pyrrolidine-1-carboxylate], the concentration for half-maximal inhibition (IC50) in assay [1] is above 30 µM; against BChE from equine serum, 147.3 ± 1.18 µM; in assay [2], 77.3 ± 3.8 µM. Moreover, at BChE from equine serum, the “SI (index selectivity) = IC50” value worked out at 0.52.

Take `O=C(Nc1ccccc1Br)[C@@H]1CCCN1C(=O)OCc1ccccc1` [Compound 6a, Benzyl (2S)-2-[(2-bromophenyl)carbamoyl]pyrrolidine-1-carboxylate]: the results for the concentration for half-maximal inhibition (IC50) (in assay [1]; on BChE from equine serum; in assay [2]) were above 30 µM, 27.4 ± 0.85 µM and 84.1 ± 4.39 µM, respectively. Besides, the “selectivity to BChE (in words)” value on BChE from equine serum is on record as “greater selectivity to BChE”. Moreover, on BChE from equine serum, the “SI (index selectivity) = IC50” value is 3.07.

Consider `O=C(Nc1cccc(Br)c1)[C@@H]1CCCN1C(=O)OCc1ccccc1` [Compound 6b, Benzyl (2S)-2-[(3-bromophenyl)carbamoyl]pyrrolidine-1-carboxylate], for which the IC50 in assay [1] was above 30 µM; at BChE from equine serum it was 47.68 ± 0.08 µM; in assay [2], 74.16 ± 0.2 µM. The “SI (index selectivity) = IC50” value on BChE from equine serum stood at 1.56.

Turning to `O=C(Nc1ccc(Br)cc1)[C@@H]1CCCN1C(=O)OCc1ccccc1` [Compound 6c, Benzyl (2S)-2-[(4-bromophenyl)carbamoyl]pyrrolidine-1-carboxylate], the figures for the half-maximal inhibitory concentration (IC50) (in assay [1]; at BChE from equine serum; in assay [2]) were above 30 µM, 28.2 ± 0.5 µM and 81.32 ± 0.67 µM, respectively. In addition, the “SI (index selectivity) = IC50” value on BChE from equine serum worked out at 2.88.

Regarding `O=C(Nc1ccccc1C(F)(F)F)[C@@H]1CCCN1C(=O)OCc1ccccc1` [Compound 7a, Benzyl (2S)-2-{[2-(trifluoromethyl)phenyl]carbamoyl}pyrrolidine-1-carboxylate], the half-inhibitory concentration (IC50) in assay [1] was above 30 µM; on BChE from equine serum, 44.9 ± 1.66 µM; in assay [2], 73.2 ± 2.88 µM. Moreover, the “SI (index selectivity) = IC50” value on BChE from equine serum stood at 1.63.

For `O=C(Nc1cccc(C(F)(F)F)c1)[C@@H]1CCCN1C(=O)OCc1ccccc1` [Compound 7b, Benzyl (2S)-2-{[3-(trifluoromethyl)phenyl]carbamoyl}pyrrolidine-1-carboxylate], the IC50 is above 30 µM in assay [1], 39.5 ± 1.4 µM on BChE from equine serum and 68.91 ± 0.06 µM in assay [2]. Moreover, on BChE from equine serum, the “SI (index selectivity) = IC50” value was 1.75.

In the case of `O=C(Nc1ccc(C(F)(F)F)cc1)[C@@H]1CCCN1C(=O)OCc1ccccc1` [Compound 7c, Benzyl (2S)-2-{[4-(trifluoromethyl)phenyl]carbamoyl}pyrrolidine-1-carboxylate], the half-inhibitory concentration (IC50) is above 30 µM in assay [1], 75.5 ± 2.94 µM on BChE from equine serum and 88.6 ± 1.6 µM in assay [2]. Moreover, on BChE from equine serum, the “SI (index selectivity) = IC50” value worked out at 1.17.

Regarding `O=C(Nc1ccccc1[N+](=O)[O-])[C@@H]1CCCN1C(=O)OCc1ccccc1` [Compound 8a, Benzyl (2S)-2-[(2-nitrophenyl)carbamoyl]pyrrolidine-1-carboxylate], the half-inhibitory concentration (IC50) in assay [1] was above 30 µM; on BChE from equine serum, 48.7 ± 0.8 µM; in assay [2] it was 152.21 ± 0.01 µM. The “SI (index selectivity) = IC50” value at BChE from equine serum was found to be 3.13.

Turning to `O=C(Nc1cccc([N+](=O)[O-])c1)[C@@H]1CCCN1C(=O)OCc1ccccc1` [Compound 8b, Benzyl (2S)-2-[(3-nitrophenyl)carbamoyl]pyrrolidine-1-carboxylate], the IC50 in assay [1] was above 30 µM; at BChE from equine serum it was 55.9 ± 0.63 µM; in assay [2], 65 ± 0.97 µM. At BChE from equine serum, the “SI (index selectivity) = IC50” value amounted to 1.16.

Consider `O=C(Nc1ccc([N+](=O)[O-])cc1)[C@@H]1CCCN1C(=O)OCc1ccccc1` [Compound 8c, Benzyl (2S)-2-[(4-nitrophenyl)carbamoyl]pyrrolidine-1-carboxylate], for which the results for the IC50 (in assay [1]; at BChE from equine serum; in assay [2]) were above 30 µM, 58.75 ± 0.27 µM and 84.52 ± 0.06 µM, respectively. At BChE from equine serum, the “SI (index selectivity) = IC50” value stood at 1.44.

Consider `O=C(Nc1ccccc1O)[C@@H]1CCCN1C(=O)OCc1ccccc1` [Compound 9a, Benzyl (2S)-2-[(2-hydroxyphenyl)carbamoyl]pyrrolidine-1-carboxylate], for which the IC50 in assay [1] was above 30 µM. On BChE from equine serum, inhibition was half-maximal at 42 ± 1.26 µM (IC50), the “selectivity to BChE (in words)” value is “greater selectivity to BChE” and the “SI (index selectivity) = IC50” value was 3.65. Also, half-maximal inhibition in assay [2] (IC50) required 153 ± 9.97 µM.

As for `O=C(Nc1cccc(O)c1)[C@@H]1CCCN1C(=O)OCc1ccccc1` [Compound 9b, Benzyl (2S)-2-[(3-hydroxyphenyl)carbamoyl]pyrrolidine-1-carboxylate], the IC50 was above 30 µM in assay [1], 86.22 ± 0.4 µM against BChE from equine serum and 122 ± 1.38 µM in assay [2]. Moreover, at BChE from equine serum, the “SI (index selectivity) = IC50” value is reported as 1.41.

Consider `O=C(Nc1ccc(O)cc1)[C@@H]1CCCN1C(=O)OCc1ccccc1` [Compound 9c, Benzyl (2S)-2-[(4-hydroxyphenyl)carbamoyl]pyrrolidine-1-carboxylate], for which the IC50 in assay [1] is above 30 µM; against BChE from equine serum, 133 ± 0.39 µM; in assay [2], 91.08 ± 0.27 µM. The “SI (index selectivity) = IC50” value on BChE from equine serum amounted to 0.68.

The term IC50 denotes the midpoint of a concentration-inhibition curve.
